Data taken from article PMC6359144 (International Journal of Molecular Sciences, 2019).
Where two headings read alike, the source gives them in different places.

Columns and labels:
518A2 melanoma cells [1] = assay: MTT assay, 518A2 melanoma cells; type: cell-based, human; details: for IC50: Homo sapiens, MTT, mean ± SD of four experiments; for effect on viability of 518A2 melanoma cells: concentrations as high as 50 µM; for IC50 after 72 h compared with IC50 after 24 h: 518A2 melanoma cells, fold lower
Protocol: (§1) HT-29 (ACC-299), HCT-116 (ACC-581) and DLD-1 (ACC-278) colon carcinoma, MCF-7 (ACC-115) breast carcinoma, KB-V1 (ACC-149), 518A2 (Department of Radiotherapy and Radiobiology, University Hospital Vienna) melanoma and Ea.Hy926 (ATCC no. CRL-2922) HUVEC derived endothelial hybrid cells line were grown in Dulbecco’s Modified Eagle Medium (DMEM; Biochrom), high glucose supplemented with 10% (v/v) fetal bovine serum (FBS; Biochrom.) and 1% (v/v) Antibiotic-Antimycotic solution (anti-anti; Thermo Scientific). HDFa human dermal fibroblasts (ATCC: PCS-201-012™) were grown in DMEM supplemented with 10% FBS, 1% anti-anti and 2 mM glutamine. The cells were incubated at 37 °C, 5% CO2, 95% humidified atmosphere. By repeated addition of topotecan or vinblastine at the maximum tolerated dose to the cell medium of MCF-7 and KB-V1 cells, the cells were rendered multidrug-resistant, indicated as MCF-7^Topo and KB-V1^Vbl, respectively. They were serially passaged following trypsinization by using 0.05% trypsin/0.02% EDTA (Biochrom). Mycoplasma contamination was routinely monitored, and only mycoplasma–free cultures were used.
(§2) MTT [3-(4,5-dimethylthiazol-2-yl)-2,5-diphenyltetrazolium bromide] (ABCR) was used to determine the cytotoxicity of test compounds as previously described. Briefly, HDFa human dermal fibroblasts and Ea.Hy926 endothelial hybrid cells (both 1 × 10^5 cells/mL, 100 µL/well), 518A2 melanoma, KB-V1^Vbl cervix carcinoma, MCF-7^Topo breast carcinoma, HT-29, DLD-1 and HCT-116 colon carcinoma (all 5 × 10^4 cells/mL, 100 µL/well) were grown in 96-well culture plates for 24 h. Then, various concentrations of the test compounds were added and the cells were incubated for 24-72 h at 37 °C. After adding 12.5 µL of a 0.5% MTT solution in PBS (final concentration 0.05%) to cell medium, microplates were incubated for 2 h and subsequently swiftly turned to discard the medium. The precipitate of formazan crystals was then dissolved in a 10% solution of SDS in DMSO containing 0.6% acetic acid. To ensure complete dissolution of formazan, microplates were incubated for at least 4 h at 37 °C. Finally, the absorbance at λ = 570 nm (formazan) and 630 nm (background) was measured using a microplate reader (Tecan F200). All experiments were carried out in quadruplicate and the percentage of viable cells was calculated as the mean ± SD with controls set to 100%. Selected graphs of MTT assays can be found in the Supporting Information (Figure S8).

[2] = system: HT-29 colon carcinoma cells; assay: MTT assay, HT-29 colon carcinoma cells; type: cell-based, human; details: for IC50: Homo sapiens, MTT; for effect on viability of HT-29 colon carcinoma cells: concentrations as high as 50 µM
Protocol: as §1, §2

[3] = system: KB-V1^Vbl cervix carcinoma cells; assay: MTT assay, KB-V1^Vbl cervix carcinoma cells; type: cell-based; details: Homo sapiens, read-out: IC50 KB-V1^Vbl (72 h)
Protocol: as §1, §2

[4] = system: HCT-116 colon carcinoma cells; assay: MTT assay, HCT-116 colon carcinoma cells; type: cell-based; details: Homo sapiens, HCT-116, read-out: IC50 HCT-116 (72 h)
Protocol: as §1, §2

[5] = system: DLD-1 colon carcinoma cells; assay: MTT assay, DLD-1 colon carcinoma cells; type: cell-based; details: Homo sapiens, DLD-1, read-out: IC50 DLD-1 (72 h)
Protocol: as §1, §2

[6] = system: Ea.Hy926 endothelial hybrid cells; assay: MTT assay, Ea.Hy926 endothelial hybrid cells; type: cell-based; details: Homo sapiens, EA.hy 926, read-out: IC50 Ea.Hy926 (72 h)
Protocol: as §1, §2

[7] = system: MCF-7^Topo breast adenocarcinoma cells; assay: MTT assay, MCF-7^Topo breast carcinoma cells; type: cell-based; details: Homo sapiens, MCF7/Topo, read-out: IC50 MCF-7^Topo (72 h)
Protocol: as §1, §2

[8] = target: T1, purified pig brain tubulin (Sus scrofa, UniProt P02550+P02554); assay: Turbidimetric cell-free tubulin polymerization assay; type: biochemical; details: 10 µM, 340 nm
T1 construct: using purified pig brain tubulin; from tissue; host or cells: pig brain
T1 sequence (P02554 whole entry): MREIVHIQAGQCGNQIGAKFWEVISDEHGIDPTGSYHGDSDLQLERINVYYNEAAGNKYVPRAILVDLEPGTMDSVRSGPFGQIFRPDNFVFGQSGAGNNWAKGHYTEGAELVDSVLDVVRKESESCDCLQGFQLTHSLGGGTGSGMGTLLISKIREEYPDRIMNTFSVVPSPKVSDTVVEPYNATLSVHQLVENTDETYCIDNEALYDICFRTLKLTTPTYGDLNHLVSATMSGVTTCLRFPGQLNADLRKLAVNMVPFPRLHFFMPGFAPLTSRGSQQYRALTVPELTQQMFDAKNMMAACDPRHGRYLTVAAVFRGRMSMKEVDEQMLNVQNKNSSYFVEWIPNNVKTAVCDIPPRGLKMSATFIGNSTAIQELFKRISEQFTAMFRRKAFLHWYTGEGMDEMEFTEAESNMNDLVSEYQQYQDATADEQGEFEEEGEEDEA
T1 sequence (P02550 whole entry): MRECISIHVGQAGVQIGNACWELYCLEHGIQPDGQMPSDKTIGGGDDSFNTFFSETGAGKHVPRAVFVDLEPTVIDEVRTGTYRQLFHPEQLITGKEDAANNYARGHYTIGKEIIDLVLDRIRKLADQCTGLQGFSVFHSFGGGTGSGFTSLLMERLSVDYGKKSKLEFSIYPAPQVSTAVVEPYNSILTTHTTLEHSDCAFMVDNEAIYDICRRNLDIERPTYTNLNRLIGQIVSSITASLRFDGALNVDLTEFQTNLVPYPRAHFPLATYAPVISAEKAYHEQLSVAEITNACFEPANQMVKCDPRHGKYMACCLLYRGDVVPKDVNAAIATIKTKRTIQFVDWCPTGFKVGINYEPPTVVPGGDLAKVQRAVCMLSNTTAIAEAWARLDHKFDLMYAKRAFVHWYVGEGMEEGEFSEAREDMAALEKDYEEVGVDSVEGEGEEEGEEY
Protocol: An amount of 50 µL of Brinkley’s buffer 80 (BRB80) supplemented with 20% glycerol and 3 mM GTP was given in a black 96-well half-area plate with clear bottom. Then, test compounds 4d–f (final concentration: 5 µM, or 10 µM) or vehicle (DMSO) were added. After adding 50 µL tubulin in BRB80 (10 mg/mL) was pipetted in the wells and immediately placed in a pre-heated microplate reader (Tecan). The polymerization was determined turbidimetrically at 37 °C by measuring the absorption at 340 nm for 120 min in intervals of 5 min. Values were normally distributed for each group (Shapiro–Wilk test, p > 0.05) and there was homogeneity of variance (Levene’s test, p > 0.05).

[9] = system: Ea.Hy926 endothelial hybrid cells; set-up: method as in earlier work; details: read-out: IC50 Ea.Hy926 (72 h), MTT, and 34; cited from earlier work
518A2 melanoma cells [10] = system: 518A2 melanoma cells; set-up: method as in earlier work; details: read-out: IC50 518A2 (72 h), MTT, and 34; cited from earlier work
[11] = system: HCT-116 colon carcinoma cells; set-up: method as in earlier work; details: read-out: IC50 HCT-116 (72 h), MTT, and 34; cited from earlier work
[12] = system: MCF-7^Topo breast adenocarcinoma cells; set-up: method as in earlier work; details: read-out: IC50 MCF-7^Topo (72 h), MTT, and 34; cited from earlier work
[13] = system: HT-29 colon carcinoma cells; set-up: method as in earlier work; details: read-out: IC50 HT-29 (72 h), MTT, and 34; cited from earlier work
[14] = 518A2, read-out: IC50 518A2 (72 h), 72 h
[15] = 518A2, 24 h, read-out: IC50 518A2 (24 h)
[16] = HT-29, read-out: IC50 HT-29 (72 h), 72 h
[17] = HT-29, 24 h, read-out: IC50 HT-29 (24 h)

Compound | IC50 (518A2 melanoma cells [1]; [14]) | IC50 (518A2 melanoma cells [1]; [15]) | effect on viability of 518A2 melanoma cells (518A2 melanoma cells [1]) | IC50 [2, 16] | IC50 [2, 17] | effect on viability of HT-29 colon carcinoma cells [2] | IC50 [3] | IC50 [4] | melting point | IC50 [5] | IC50 after 72 h compared with IC50 after 24 h (518A2 melanoma cells [1]) | IC50 [6] | IC50 [7] | inhibition of tubulin polymerization [8] | IC50 [9] | IC50 (518A2 melanoma cells [10]) | IC50 [11] | IC50 [12] | IC50 [13]
CCOC(=O)CCCOc1cc(-c2ocnc2-c2cc(OC)c(OC)c(OC)c2)ccc1OC [3g, Ethyl 4-[1-methoxy-4-(4’-(3’’,4’’,5’’-trimethoxyphenyl)oxazol-5’-yl)-2-phenoxy]butyrate] | > 50 µM | > 100 µM | did not affect the viability | > 50 µM | > 100 µM | did not affect the viability | – | – | – | – | – | – | – | – | – | – | – | – | –
COc1ccc(-c2ocnc2-c2cc(Cl)c(OC)c(OC)c2)cc1OCCCC(=O)NO [4a, N-Hydroxy-4-[1-methoxy-4-(4’-(3’’-chloro-4’’,5’’-dimethoxyphenyl)oxazol-5’-yl)-2-phenoxy]butanamide] | 0.11 ± 0.01 µM | 1.3 ± 0.4 µM | – | 2.9 ± 0.3 µM | 2.5 ± 0.4 µM | – | 0.15 ± 0.02 µM | 0.21 ± 0.01 µM | 171 to 172 °C | 0.34 ± 0.01 µM | about eight-fold | 0.0012 ± 0.0006 µM | 0.66 ± 0.14 µM | – | – | – | – | – | –
COc1ccc(-c2ocnc2-c2cc(Cl)c(OC)c(OC)c2)cc1OCCCCC(=O)NO [4b, N-Hydroxy-5-[1-methoxy-4-(4’-(3’’-chloro-4’’,5’’-dimethoxyphenyl)oxazol-5’-yl)-2-phenoxy]pentanamide] | 1 ± 0.1 µM | 10.4 ± 5.1 µM | – | 3.6 ± 0.1 µM | 4.2 ± 0.2 µM | – | 4 ± 0.2 µM | 2.4 ± 0.1 µM | 202 °C | 3.2 ± 0.1 µM | – | 0.57 ± 0.07 µM | 2.9 ± 0.8 µM | – | – | – | – | – | –
COc1ccc(-c2ocnc2-c2cc(Cl)c(OC)c(OC)c2)cc1OCCCCCC(=O)NO [4c, N-Hydroxy-6-[1-methoxy-4-(4’-(3’’-chloro-4’’,5’’-dimethoxyphenyl)oxazol-5’-yl)-2-phenoxy]hexanamide] | 2.2 ± 0.3 µM | 9.4 ± 1.4 µM | – | 4.9 ± 0.3 µM | 4.6 ± 0.3 µM | – | 18.4 ± 3.4 µM | 6.5 ± 0.3 µM | 189 °C | 3.3 ± 0.5 µM | – | 7.5 ± 0.5 µM | 6.1 ± 0.7 µM | – | – | – | – | – | –
COc1ccc(-c2ocnc2-c2cc(OC)c(OC)c(OC)c2)cc1OCCCC(=O)NO [4g, N-Hydroxy-4-[1-methoxy-4-(4’-(3’’,4’’,5’’-trimethoxyphenyl)oxazol-5’-yl)-2-phenoxy]butanamide] | 0.64 ± 0.07 µM | 4.4 ± 0.1 µM | – | 2.8 ± 0.2 µM | 5 ± 0.2 µM | – | 2.7 ± 0.2 µM | 0.92 ± 0.12 µM | – | 0.92 ± 0.04 µM | about eight-fold | 0.41 ± 0.04 µM | 9.3 ± 0.8 µM | – | – | – | – | – | –
COc1ccc(-c2ocnc2-c2cc(OC)c(OC)c(OC)c2)cc1OCCCCC(=O)NO [4h, N-Hydroxy-5-[1-methoxy-4-(4’-(3’’,4’’,5’’-trimethoxyphenyl)oxazol-5’-yl)-2-phenoxy]pentanamide] | 5.6 ± 0.6 µM | 21.6 ± 3.9 µM | – | 6.6 ± 0.6 µM | 53.9 ± 12 µM | – | 11.1 ± 1.6 µM | 3.4 ± 0.4 µM | 118 to 120 °C | 5.8 ± 0.4 µM | – | 3.4 ± 0.2 µM | 39.6 ± 5.9 µM | – | – | – | – | – | –
COc1ccc(-c2ocnc2-c2cc(OC)c(OC)c(OC)c2)cc1OCCCCCC(=O)NO [4i, N-Hydroxy-6-[1-methoxy-4-(4’-(3’’,4’’,5’’-trimethoxyphenyl)oxazol-5’-yl)-2-phenoxy]hexanamide] | 3.3 ± 0.3 µM | 6.9 ± 2.5 µM | – | 1.7 ± 0.1 µM | 47.6 ± 10.6 µM | – | 9 ± 0.3 µM | 0.61 ± 0.07 µM | – | 1.3 ± 0.1 µM | – | 1.7 ± 0.1 µM | 15.8 ± 1.4 µM | – | – | – | – | – | –
COc1ccc(-c2ocnc2-c2cc(OC)c(OC)c(OC)c2)cc1OCCCC(=O)O [4j, 4-[1-Methoxy-4-(4’-(3’’,4’’,5’’-trimethoxyphenyl)oxazol-5’-yl)-2-phenoxy]butyric acid] | > 50 µM | > 100 µM | did not affect the viability | > 100 µM | > 100 µM | did not affect the viability | – | – | – | – | – | – | – | – | – | – | – | – | –
COc1ccc(/C=C\c2cc(OC)c(OC)c(OC)c2)cc1O [CA-4, Combretastatin A-4] | – | – | – | – | – | – | – | – | – | – | – | – | – | significant inhibition of tubulin polymerization | 0.011 ± 0.002 µM | 0.018 ± 0.007 µM | 0.0026 ± 0.0002 µM | 0.5 ± 0.2 µM | 3.6 ± 0.1 µM
